Source: article PMC8972196, “A Set of Experimentally Validated Decoys for the Human CC Chemokine Receptor 7 (CCR7) Obtained by Virtual Screening” (Frontiers in Pharmacology, 2022)
Where two headings read alike, the source gives them in different places.

Key:
human CXCR4 = biological target: T1, human CXCR4 (Homo sapiens, UniProt P61073); assay: CXCL12-induced calcium mobilization assay, U87.CD4 cells expressing CXCR4; assay type: cell-based; conditions: for effect on CXCR4 mediated calcium response: result in words
T1 construct: expressed in transfected cells
Method: U87.CD4 cells that stably express either human CCR7, CXCR2, CCR5 or CXCR4 were seeded (20,000 cells/well) in gelatin-coated black-walled polystyrene 96-well plates with clear bottom and incubated overnight at 37°C and 5% CO2. The next day, a fluorescent Ca^2+-sensitive dye solution (Fluo-2 AM) was prepared as described before ([Claes et al., 2018]). Culture medium was removed, and cells were incubated for 45 min at room temperature in the dark. Meanwhile, 96-well polypropylene plates containing 5-fold concentrated compound dilutions and 5-fold concentrated solution of chemokine ligands (CCL19, CXCL8, LD78-β, CXCL12, respectively; all purchased from PeproTech) were prepared for use with the FLIPR Tetra device (Molecular Devices) as described before ([Claes et al., 2018]). The antagonistic properties of the compounds were calculated based on their capacity to inhibit the Ca^2+ release induced by a fixed concentration of chemokine (i.e. 50 ng/mL final concentration for CCL19, CXCL8 and CXCL12 and 100 ng/ml for LD78-β), as described ([Claes et al., 2018]). Exactly the same protocol was used to record calcium responses in Chinese hamster ovary (CHO)-K1 cells, upon stimulation with adenosine triphosphate (ATP, purchased from Sigma).

human CCR5 = biological target: T2, human CCR5 (Homo sapiens, UniProt P51681); assay: cell-based
T2 construct: expressed in transfected cells
Method: (§1) U87.CD4 cells that stably express either human CCR7, CXCR2, CCR5 or CXCR4 were seeded (20,000 cells/well) in gelatin-coated black-walled polystyrene 96-well plates with clear bottom and incubated overnight at 37°C and 5% CO2. […] Culture medium was removed, and cells were incubated for 45 min at room temperature in the dark. […] Exactly the same protocol was used to record calcium responses in Chinese hamster ovary (CHO)-K1 cells, upon stimulation with adenosine triphosphate (ATP, purchased from Sigma).

CCR7 = test system: CCR7; design: method as in Jaeger et al., 2019; conditions: result in words; ref Jaeger et al., 2019; cited from earlier work
human CCR7 [1] = biological target: T3, human CCR7 (Homo sapiens, UniProt P32248); assay: CCR7 competition binding assay with CCL19^AF647 (flow cytometry, whole cells); conditions: for IC50: inhibition of CCL19^AF647 binding, Mean ± SD of four independent experiments; for inhibition of CCL19^AF647 binding / CCR7 affinity: result in words
T3 construct: expressed in transfected cells
T3 sequence (P32248 25-378): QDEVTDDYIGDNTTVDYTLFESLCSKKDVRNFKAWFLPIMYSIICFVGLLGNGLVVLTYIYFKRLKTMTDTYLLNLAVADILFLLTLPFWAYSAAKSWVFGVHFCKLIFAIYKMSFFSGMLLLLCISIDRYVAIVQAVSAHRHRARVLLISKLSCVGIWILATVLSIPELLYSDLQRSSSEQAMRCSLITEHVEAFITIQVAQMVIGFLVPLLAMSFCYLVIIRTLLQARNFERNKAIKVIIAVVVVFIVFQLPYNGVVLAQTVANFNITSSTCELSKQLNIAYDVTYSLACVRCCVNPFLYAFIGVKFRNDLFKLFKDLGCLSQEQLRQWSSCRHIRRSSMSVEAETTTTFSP
Method: In brief, U87.CD4.CCR7 cells were pre-incubated with compound (at different concentrations) in 150 μL assay buffer [Hank’s balanced salt solution (HBSS), 20 mM HEPES and 0.5% Fetal Calf Serum] for 15 min at room temperature (RT) in the dark. Afterwards, 50 μL of CCL19^AF647 was added (25 ng/mL final concentration) and samples were incubated for another 30 min at RT, protected from light. Then, cells were washed twice with assay buffer and fixed in 1% paraformaldehyde in Dulbecco’s phosphate-buffered saline (DPBS).
Samples were immediately analyzed by flow cytometry (FACS Canto II, BD). Data were analysed using Flowjo. The percentage inhibition of CCL19^AF647 binding was calculated according to formula {1—[(MFIX–MFINC)/(MFIPC–MFINC)]} x 100, where MFIX is the mean fluorescence intensity (MFI) of the compound-treated sample, MFINC the MFI of the negative control (i.e., autofluorescence of untreated and unlabeled cells) and MFIPC the MFI of the positive control (i.e., cells exposed to CCL19^AF647 only). […] For each experiment the stain index (SI) was calculated as the ratio of the separation between MFIPC and MFINC, divided by two times the standard deviation of MFINC.

human CCR7 [2] = biological target: T3, human CCR7; assay: CCL19-induced calcium mobilization assay, U87.CD4 cells expressing CCR7; assay type: cell-based; conditions: for CCR7 antagonism in calcium mobilization assay: CCL19-induced, result in words; for Decoy – 0 Active – 1: classification of tested compounds as decoy or active
Method in brief: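 U87.CD4 cells stably expressing human CCR7, CXCR2 or CCR5 were seeded at 20,000 cells/well and incubated overnight at 37°C and 5% CO2. Cells were then incubated for 45 min at room temperature in the dark before calcium responses were recorded. CCR7 responses were induced with CCL19 and CXCR2 responses with CXCL8.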

human or murine CCR7 = test system: human or murine CCR7; design: method as in Hull-Ryde et al., 2018; conditions: ref Hull-Ryde et al., 2018, cited from earlier work; for IC50: read-out: IC50, β-arrestin recruitment
[3] = test system: ATP-induced Ca2+ release in CHO-K1 cells; assay: ATP-induced calcium response in CHO-K1 cells; conditions: ATP 10 µM final concentration, Fluo-2
From the text: Using CHO-K1 cells, exactly the same experimental set-up as for the chemokine receptor expressing U87 cells was applied, essentially including the same fluorescent calcium dye (Fluo-2) for cell loading.

human CXCR2 = biological target: T4, human CXCR2 (Homo sapiens, UniProt P25025); assay: CXCL8-induced calcium mobilization assay, U87.CD4 cells expressing CXCR2; assay type: cell-based
T4 construct: expressed in transfected cells
T4 sequence (P25025 1-360): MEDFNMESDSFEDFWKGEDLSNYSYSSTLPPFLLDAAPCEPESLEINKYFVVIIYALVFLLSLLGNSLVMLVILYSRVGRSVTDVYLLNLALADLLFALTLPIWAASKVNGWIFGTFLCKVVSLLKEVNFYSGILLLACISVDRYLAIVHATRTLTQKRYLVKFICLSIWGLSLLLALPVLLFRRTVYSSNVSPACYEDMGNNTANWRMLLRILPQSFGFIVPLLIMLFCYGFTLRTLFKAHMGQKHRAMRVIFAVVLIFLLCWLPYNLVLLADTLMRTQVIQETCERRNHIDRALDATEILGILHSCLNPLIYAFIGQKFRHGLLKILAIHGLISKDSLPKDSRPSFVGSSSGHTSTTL
Method: as §1

T1 sequence (P61073 whole entry): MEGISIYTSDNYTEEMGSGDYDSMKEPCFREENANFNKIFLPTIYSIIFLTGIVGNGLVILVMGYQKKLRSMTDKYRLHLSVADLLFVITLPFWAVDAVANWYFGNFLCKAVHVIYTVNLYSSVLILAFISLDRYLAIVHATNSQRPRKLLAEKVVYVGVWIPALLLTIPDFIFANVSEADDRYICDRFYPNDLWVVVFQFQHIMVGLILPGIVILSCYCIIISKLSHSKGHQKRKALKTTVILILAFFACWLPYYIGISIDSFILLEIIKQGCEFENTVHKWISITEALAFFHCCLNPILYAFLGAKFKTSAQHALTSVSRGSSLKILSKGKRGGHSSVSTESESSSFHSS
T2 sequence (P51681 whole entry): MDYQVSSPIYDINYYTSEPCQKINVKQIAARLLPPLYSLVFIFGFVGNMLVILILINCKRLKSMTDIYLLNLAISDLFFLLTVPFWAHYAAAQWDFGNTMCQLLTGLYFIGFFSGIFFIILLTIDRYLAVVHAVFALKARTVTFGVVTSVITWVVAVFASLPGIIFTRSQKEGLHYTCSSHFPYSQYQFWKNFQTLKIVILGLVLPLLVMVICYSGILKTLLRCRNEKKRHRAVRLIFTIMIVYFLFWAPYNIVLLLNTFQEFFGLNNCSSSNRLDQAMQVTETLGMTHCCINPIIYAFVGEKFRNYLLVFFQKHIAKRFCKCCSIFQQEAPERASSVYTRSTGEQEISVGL

SMILES	effect on CXCR4 mediated calcium response (human CXCR4)	thermal stabilization of CCR7 (CCR7)	IC50 (human CCR7 [1]) [µM]	inhibition of CCL19^AF647 binding / CCR7 affinity (human CCR7 [1])	IC50 (human CCR7 [2]) [µM]	CCR7 antagonism in calcium mobilization assay (human CCR7 [2])	Decoy – 0 Active – 1 (human CCR7 [2])	further results
CC[C@@H](Nc1c(Nc2cccc(C(=O)N(C)C)c2O)c(=O)c1=O)c1ccc(C)o1 [Navarixin]	no (or only very limited) effect	–	–	–	–	–	–	effect on CCR5 mediated calcium response (human CCR5; result in words): no (or only very limited) effect
CCOC(=O)N1CCC(Nc2c(NCCOC)c(=O)c2=O)CC1 [CS-3, Ethyl 4-((2-((2-methoxyethyl)amino)-3,4-dioxocyclobut-1-en-1-yl)amino)piperidine-1-carboxylate, reference compound]	–	hits in the thermofluor stability assay, albeit less potent than cmp2105 and navarixin	> 50	did not show any CCR7 affinity	> 50	inactive	0	–
CC(C)CCC[C@@H](C)[C@H]1CC[C@H]2[C@@H]3CC[C@H]4C[C@@H](CCC=C(c5cc(Cl)c(O)c(C(=O)O)c5)c5cc(Cl)c(O)c(C(=O)O)c5)CC[C@]4(C)[C@H]3CC[C@]12C [cosalane]	–	–	–	–	–	–	–	IC50 (human or murine CCR7; CCL19 used as the natural CCR7 ligand): 0.2 µM; IC50 (human or murine CCR7; CCL21 used as the agonist): 2.7 µM; activity against human versus murine CCR7 (human or murine CCR7; result in words): nearly identical activity against the human and murine CCR7 orthologues
FC(F)(F)c1cc(NC(=S)Nc2cc(C(F)(F)F)cc(C(F)(F)F)c2)cc(C(F)(F)F)c1 [C040, S=C(NC1=CC(C(F)(F)F)=CC(C(F)(F)F)=C1)NC2=CC(C(F)(F)F)=CC(C(F)(F)F)=C2]	–	–	–	completely devoid of activity	–	–	–	inhibition of calcium response induced by ATP [3]: dose-dependently inhibit; IC50 (human CXCR2; Mean ± SD of at least three independent experiments, read-out: IC50, CXCL8-CXCR2 Ca2+ response): 3 to 18 µM; activity in CCR7 competition binding assay (human CCR7 [1]; highest concentration tested (25 µM)): inactive; IC50 (human CXCR4; Mean ± SD of at least three independent experiments, read-out: IC50, CXCL12-CXCR4 Ca2+ response): 3 to 18 µM; IC50 (human CCR5; Mean ± SD of at least three independent experiments, read-out: IC50, LD78-β-CCR5 Ca2+ response): 3 to 18 µM; IC50 [μM] block CCL19 induced calcium signaling (human CCR7 [2]; CCL19-induced calcium signaling): assay interference; IC50 (human CCR7 [2]; inhibition of CCL19 induced intracellular calcium flux, Mean ± SD of at least three independent experiments, read-out: Calcium assay IC50): 3 to 18 µM
COCCNc1c(Nc2cccc(C#N)c2)c(=O)c1=O [CS-2, 3-((2-((2-Methoxyethyl)amino)-3,4-dioxocyclobut-1-en-1-yl)amino)benzonitrile, reference compound]	–	hits in the thermofluor stability assay, albeit less potent than cmp2105 and navarixin	> 50	did not show any CCR7 affinity	> 50	inactive	0	–
Cc1ccc([C@@H](NC2=NS(=O)(=O)N=C2Nc2ccc(C)c(C(=O)N(C)C)c2O)C(C)(C)C)o1 [Cmp2105, reference compound]	no (or only very limited) effect	–	–	–	–	–	–	inhibition of CXCR2 mediated calcium mobilization (human CXCR2; result in words): inhibited
